From PubChem BioAssay (NCI)
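Five compound concentrations were applied to cells in 96-well plates for 48 hours; endpoints were derived by simple linear interpolation of the resulting dose-response curve. GI50: concentration for 50% inhibition of growth. TGI: total growth inhibition.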

Experiments:
Assay in all cases: NCI-60 cell line screen, 48 h
[1] = system: NCI-H460 lung
[2] = system: HL-60(TB) leukemia
[3] = system: NCI-H23 lung
[4] = system: U251 CNS
[5] = system: COLO 205 colon
[6] = system: LOX IMVI melanoma
[7] = system: OVCAR-3 ovarian
[8] = system: NCI-H226 lung
[9] = system: UACC-257 melanoma
[10] = system: SNB-19 CNS
[11] = system: 786-0 renal
[12] = system: SW-620 colon
[13] = system: HS 578T breast
[14] = system: K-562 leukemia
[15] = system: CAKI-1 renal
[16] = system: CCRF-CEM leukemia
[17] = system: NCI/ADR-RES ovarian
[18] = system: SK-OV-3 ovarian
[19] = system: SK-MEL-28 melanoma
[20] = system: A549 NSCLC
[21] = system: MCF7 breast
[22] = system: HCT-116 colon
[23] = system: SF-295 CNS
[24] = system: MDA-MB-435
[25] = system: HCC-2998 colon
[26] = system: EKVX NSCLC
[27] = system: HCT-15 colon
[28] = system: SR leukemia
[29] = system: SK-MEL-2 melanoma
[30] = system: SF-539 CNS
[31] = system: RXF 393 renal
[32] = system: HT29 colon
[33] = system: MDA-MB-231 breast
[34] = system: SNB-75 CNS
[35] = system: BT-549 breast
[36] = system: M14 melanoma
[37] = system: KM12 colon
[38] = system: PC-3 prostate
[39] = system: UO-31 renal
[40] = system: DU-145 prostate
[41] = system: OVCAR-5 ovarian
[42] = system: UACC-62 melanoma
[43] = system: IGROV1 ovarian
[44] = system: SK-MEL-5 melanoma
[45] = system: NCI-H522 lung
[46] = system: RPMI-8226 leukemia
[47] = system: SF-268 CNS
[48] = system: OVCAR-4 ovarian
[49] = system: OVCAR-8 ovarian
[50] = system: TK-10 renal
[51] = system: MOLT-4 leukemia
[52] = system: A498 renal
[53] = system: HOP-62 NSCLC
[54] = system: ACHN renal
[55] = system: SN12C renal
[56] = system: HOP-92 NSCLC
[57] = system: MALME-3M melanoma
[58] = system: T-47D breast

O=C1OCC2=C1C(c1cccc(Cl)c1)c1cc3c(cc1N2CCO)OCO3 (stereo not given)
GI50 [1]: 0.414 µM
TGI [1]: > 35.3 µM
GI50 [2]: 0.328 µM
TGI [2]: 3.7 µM
GI50 [3]: 0.502 µM
TGI [3]: > 100 µM
GI50 [4]: 0.383 µM
TGI [4]: 17.7 µM
GI50 [5]: 0.36 µM
TGI [5]: 1.38 µM
GI50 [6]: 0.6 µM
TGI [6]: 27 µM
GI50 [7]: 0.27 µM
TGI [7]: 0.811 µM
GI50 [8]: 0.753 µM
TGI [8]: 20 µM
GI50 [9]: 0.256 µM
TGI [9]: > 44.5 µM
GI50 [10]: 0.784 µM
TGI [10]: > 100 µM
GI50 [11]: 0.558 µM
TGI [11]: > 41.8 µM
GI50 [12]: 0.358 µM
TGI [12]: > 100 µM
GI50 [13]: 0.445 µM
TGI [13]: > 58.2 µM
GI50 [14]: 0.354 µM
TGI [14]: > 100 µM
GI50 [15]: 0.216 µM
TGI [15]: 22.6 µM
GI50 [16]: 0.527 µM
TGI [16]: > 100 µM
GI50 [17]: 0.301 µM
TGI [17]: > 41 µM
GI50 [18]: 0.412 µM
TGI [18]: 10.5 µM
GI50 [19]: 0.755 µM
TGI [19]: > 100 µM
GI50 [20]: 0.498 µM
TGI [20]: 33.5 µM
GI50 [21]: 0.313 µM
TGI [21]: > 100 µM
GI50 [22]: 0.466 µM
TGI [22]: > 36.3 µM
GI50 [23]: 0.26 µM
TGI [23]: 22.4 µM
GI50 [24]: 0.0383 µM
TGI [24]: 0.233 µM
GI50 [25]: 1.07 µM
TGI [25]: 14.3 µM
GI50 [26]: 2.59 µM
TGI [26]: > 87.2 µM
GI50 [27]: 0.428 µM
TGI [27]: > 100 µM
GI50 [28]: 0.359 µM
TGI [28]: 70.4 µM
GI50 [29]: 2.44 µM
TGI [29]: > 44.3 µM
GI50 [30]: 0.303 µM
GI50 [31]: 0.278 µM
GI50 [32]: 0.364 µM
TGI [32]: 4.73 µM
GI50 [33]: 1.66 µM
TGI [33]: 14.4 µM
GI50 [34]: 0.281 µM
TGI [34]: > 100 µM
GI50 [35]: 0.603 µM
GI50 [36]: 0.36 µM
TGI [36]: > 22.5 µM
GI50 [37]: 0.398 µM
TGI [37]: 29.6 µM
GI50 [38]: 0.381 µM
TGI [38]: > 43.7 µM
GI50 [39]: 0.465 µM
TGI [39]: > 65.4 µM
GI50 [40]: 0.512 µM
TGI [40]: 16.9 µM
GI50 [41]: 1.26 µM
TGI [41]: > 100 µM
GI50 [42]: 0.36 µM
TGI [42]: > 44.6 µM
GI50 [43]: 2.79 µM
TGI [43]: > 74.4 µM
GI50 [44]: 0.256 µM
TGI [44]: 12.5 µM
GI50 [45]: 0.228 µM
TGI [45]: 16.2 µM
GI50 [46]: 0.535 µM
TGI [46]: 35.8 µM
GI50 [47]: 0.7 µM
TGI [47]: 34.6 µM
GI50 [48]: 0.696 µM
TGI [48]: > 100 µM
GI50 [49]: 0.503 µM
TGI [49]: > 65.8 µM
GI50 [50]: 17.7 µM
TGI [50]: > 100 µM
GI50 [51]: 1.14 µM
TGI [51]: 97.8 µM
GI50 [52]: 0.23 µM
TGI [52]: 2.55 µM
GI50 [53]: 0.481 µM
TGI [53]: 57.7 µM
GI50 [54]: 0.785 µM
TGI [54]: > 100 µM
GI50 [55]: 0.817 µM
TGI [55]: > 63.7 µM

C[C@]12CCC3c4ccc(O)cc4CCC3C1CC[C@@]2(O)C#Cc1ccc(C#C/C=C\C#Cc2ccccc2N)cc1 (stereo not given in full)
GI50 [1]: 12.6 µM
TGI [1]: > 100 µM
GI50 [2]: 26.7 µM
TGI [2]: > 100 µM
GI50 [56]: 16 µM
TGI [56]: 46.5 µM
GI50 [3]: 26.5 µM
TGI [3]: > 100 µM
GI50 [4]: 19 µM
TGI [4]: 80.4 µM
GI50 [6]: 35.8 µM
TGI [6]: > 100 µM
GI50 [7]: 13.8 µM
TGI [7]: 48 µM
GI50 [8]: 20.2 µM
TGI [8]: 48.2 µM
GI50 [9]: 28.7 µM
TGI [9]: > 100 µM
GI50 [11]: 20.5 µM
TGI [11]: 57.5 µM
GI50 [57]: 17.2 µM
TGI [57]: 48.1 µM
GI50 [12]: 40 µM
TGI [12]: > 100 µM
GI50 [14]: 12.4 µM
TGI [14]: 86.5 µM
GI50 [15]: 20.6 µM
TGI [15]: 68.6 µM
GI50 [16]: > 100 µM
TGI [16]: > 100 µM
GI50 [17]: 17.7 µM
TGI [17]: 52.2 µM
GI50 [18]: 39.7 µM
TGI [18]: > 100 µM
GI50 [20]: 32.9 µM
TGI [20]: > 100 µM
GI50 [21]: 0.308 µM
TGI [21]: > 100 µM
GI50 [22]: 12.3 µM
TGI [22]: > 100 µM
GI50 [23]: 17.1 µM
TGI [23]: > 100 µM
GI50 [24]: 31.7 µM
TGI [24]: > 100 µM
GI50 [25]: 25.6 µM
TGI [25]: 54.5 µM
GI50 [26]: 20.3 µM
TGI [26]: 65.5 µM
GI50 [27]: 22.2 µM
TGI [27]: > 100 µM
GI50 [28]: > 100 µM
TGI [28]: > 100 µM
GI50 [29]: 42.2 µM
TGI [29]: > 100 µM
GI50 [30]: 21.3 µM
TGI [30]: 52.6 µM
GI50 [31]: 36.3 µM
TGI [31]: > 100 µM
GI50 [32]: 25.8 µM
TGI [32]: > 100 µM
GI50 [33]: 21 µM
TGI [33]: 53.5 µM
GI50 [34]: > 100 µM
TGI [34]: > 100 µM
GI50 [35]: 19.2 µM
TGI [35]: 45.1 µM
GI50 [36]: 29.5 µM
TGI [36]: > 100 µM
GI50 [37]: 9.66 µM
TGI [37]: > 100 µM
GI50 [38]: 15.6 µM
TGI [38]: 55.3 µM
GI50 [39]: 15.9 µM
TGI [39]: 85.1 µM
GI50 [40]: 23.9 µM
TGI [40]: > 100 µM
GI50 [41]: 38.4 µM
TGI [41]: > 100 µM
GI50 [42]: 15.2 µM
TGI [42]: 41.2 µM
GI50 [58]: > 100 µM
TGI [58]: > 100 µM
GI50 [43]: 87.1 µM
TGI [43]: > 100 µM
GI50 [44]: 17.9 µM
TGI [44]: 41 µM
GI50 [45]: 17 µM
TGI [45]: > 100 µM
GI50 [46]: 7.56 µM
TGI [46]: 79.7 µM
GI50 [47]: 24.8 µM
TGI [47]: > 100 µM
GI50 [48]: 23.6 µM
TGI [48]: > 100 µM
GI50 [49]: 47.4 µM
TGI [49]: > 100 µM
GI50 [50]: 36.6 µM
TGI [50]: > 100 µM
GI50 [51]: 57.5 µM
TGI [51]: > 100 µM
GI50 [52]: 21.7 µM
TGI [52]: 41 µM
GI50 [53]: 28.7 µM
TGI [53]: 70 µM
GI50 [54]: 17.8 µM
TGI [54]: 43.6 µM
GI50 [55]: 21.7 µM
TGI [55]: 61.1 µM
